Experimental data as given in patent publication US11279761B2, “Anti-PD-L1 combinations for treating tumors” (BIRDIE BIOPHARMACEUTICALS, INC., priority 2014, dated 2022).

How the values were obtained:
[1] = test system: C26 tumor; experiment: Combinational efficacy of anti-PD-L1 and R848 in PD-L1 expressed C26 tumor model (Study No. R-BDB001-0008); assay type: in vivo; details: C26 s.c. in BALB/c mice; single agent, 3-week period
Protocol: The objective of this study was to determine the single or combinational efficacy of R848 and anti-PD-L1 monoclonal antibody in the C26 tumor model in immune-competent mouse. C26 cells were inoculated by subcutaneous injection into the right flank of BALB/c mice on Day 0. Tumors were monitored until they reached a mean tumor volume of between 60 and 100 mm3, inclusive. Mice were administered, over a 3-week period, 10 mg/kg IV (via tail vein) of rat anti-mouse PD-L1 monoclonal antibody alone twice weekly, 0.08 mg/kg of R848 alone once weekly, or a combination of anti-PD-L1 antibody and R848.
The differences in tumor inhibition by the combination treatment compared to that of each component is shown graphically (FIG. 6)) and was highly significant (p=0.0029, anti-PDL1 and R848 combined versus R848 alone; p=0.0074, anti-PDL1 and R848 combined versus anti-PDL1 alone).

[2] = test system: mouse colon adenocarcinoma 26 (C26) tumor; experiment: Combinational efficacy of R848 and anti-PD-1 antibody in PD-L1 expressed C26 tumor model; assay type: in vivo; details: C26 s.c. in BALB/c mice; single agent, three-week period
Protocol: The objective of this study was to determine the single or combinational efficacy of R848 and anti-PD-1 monoclonal antibody in the mouse colon adenocarcinoma 26 (C26) tumor model in immune-competent mouse. C26 cells were inoculated by subcutaneous injection into the right flank of BALB/c mice on Day 0. Tumors were monitored until they reached a mean tumor volume of between 60 and 100 mm3. Mice were then administered over a three-week period 10 mg/kg IV (via tail vein) of rat anti-mouse PD-1 monoclonal antibody alone twice weekly, 0.08 mg/kg of R848 alone once weekly, or a combination of anti-PD-1 antibody and R848. Tumor volumes were recorded twice weekly over the course of the study and the mice were observed regularly. Tumor-bearing mice (treatment, control) were sacrificed at Day 26 or if they became moribund before the tumor volume reached 2000 mm3. […] The differences in tumor inhibition by the combination treatment compared to that of each component is shown graphically (FIG. 5) and was highly significant (p=0.0002, anti-PD-1 and R848 combined versus R848 alone; p=0.0063 anti-PD-1 and R848 combined versus anti-PD-1 alone).

For `CCOCc1nc2c(N)nc3ccccc3c2n1CC(C)(C)O` [R848, 4-amino-2-(ethoxymethyl)-a,a-di-methyl-1H-imidazo[4,5-c]quinoline-1-ethanol], the “inhibition in tumor growth” value [1] was “Limited inhibition” and the “inhibition in tumor growth” value [2] was “Limited inhibition”.
